ChEMBL document CHEMBL1201862, “PubChem BioAssay data set” (2004)
Blank lines part the entries; values can stand above or below the compound they belong to. The source made the active and inactive calls.

What was measured:
[1] = molecular target: T1, DNA dC->dU-editing enzyme APOBEC-3A (Homo sapiens, UniProt P31941); assay: SAR analysis of small molecule inhibitors of APOBEC3A DNA Deaminase via a fluorescence-based single-stranded DNA deaminase assay - Set 2.; type: functional; details: read-out: IC50_Mean
[2] = molecular target: T1, DNA dC->dU-editing enzyme APOBEC-3A; assay: Dose Response confirmation of small molecule APOBEC3A DNA Deaminase Inhibitors via a fluorescence-based single-stranded DNA deaminase assay. [Related pubchem assays (depositor defined):AID493011, AID493024]; type: functional
[3] = molecular target: T2, DNA dC->dU-editing enzyme APOBEC-3G (Homo sapiens, UniProt Q9HC16); assay: APOBEC3G deaminase inhibitors, SAR follow-up, biochemical, fluorescence, single-stranded DNA substrate (AID 602136); type: functional; details: read-out: IC50_Mean
[4] = molecular target: T1, DNA dC->dU-editing enzyme APOBEC-3A; assay: SAR analysis of small molecule inhibitors of APOBEC3A DNA Deaminase via a fluorescence-based single-stranded DNA deaminase assay.; type: functional; details: read-out: IC50_Mean
[5] = molecular target: T2, DNA dC->dU-editing enzyme APOBEC-3G; assay: SAR analysis of small molecule inhibitors of APOBEC3G DNA Deaminase via a fluorescence-based single-stranded DNA deaminase assay - Set 2.; type: functional; details: read-out: IC50_Mean
[6] = molecular target: T2, DNA dC->dU-editing enzyme APOBEC-3G; type: functional
[7] = AlphaScreen signal interference compounds, dose response, artefact control for ARNT-TACC3 interaction inhibitor project, biochemical, luminescence, cherry-pick (AID 651705); type: functional;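 note: AlphaScreen bead proximity signal that flags compounds interfering with the detection technology; potency reflects signal decrease which marks the compound as an assay artifact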
H9c2 = assay: cells; type: functional, cell-based; details: Rattus norvegicus, H9c2, Myocardium;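 note: confirmatory concentration-response retest of ultra-high-throughput screening hits for modulation of myocardial damage; cell death induced by hydrogen peroxide oxidative stress; compound pretreatment for 60 min then peroxide exposure for 2 h; potency is for protecting the cells against peroxide damage rather than for killing them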
[8] = ARNT/TACC3 interaction disruptors, potency, confirmation, biochemical, AlphaScreen, cherry-picked samples (AID 651703); type: functional, Homo sapiens;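 note: His-tagged ARNT PAS-B domain paired with GST-TACC3 E629A dimer coactivator fragment; potency of inhibitors that break up the complex and lower AlphaScreen signal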
Melanocortin receptor 4 = Melanocortin receptor 4 (Homo sapiens, UniProt P32245); type: functional, cell-based;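 note: Cell-based assay with luminescence read-out, confirmatory dose-response testing for agonist activity of biased ligands at MC4R; human U2OS cells with tagged receptor and beta-arrestin; potency of agonists that increase receptor coupling to beta-arrestin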
[9] = molecular target: T3, Interleukin-1 receptor-associated kinase 4 (Homo sapiens, UniProt Q9NWZ3); type: functional
T3 sequence (Q9NWZ3 whole entry): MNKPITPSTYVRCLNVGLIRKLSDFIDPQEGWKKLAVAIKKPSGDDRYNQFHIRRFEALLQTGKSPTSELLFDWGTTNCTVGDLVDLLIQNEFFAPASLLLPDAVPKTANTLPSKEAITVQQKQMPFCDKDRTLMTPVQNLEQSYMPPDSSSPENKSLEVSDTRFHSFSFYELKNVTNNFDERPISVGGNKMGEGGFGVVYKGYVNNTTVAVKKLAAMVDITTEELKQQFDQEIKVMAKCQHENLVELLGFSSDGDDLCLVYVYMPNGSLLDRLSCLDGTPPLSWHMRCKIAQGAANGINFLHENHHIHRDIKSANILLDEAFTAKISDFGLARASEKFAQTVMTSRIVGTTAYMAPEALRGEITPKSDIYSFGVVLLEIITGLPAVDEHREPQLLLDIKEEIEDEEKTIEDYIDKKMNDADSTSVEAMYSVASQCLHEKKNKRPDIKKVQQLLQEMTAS

[10] = molecular target: Mitogen-activated protein kinase kinase kinase kinase 4 (Homo sapiens, UniProt O95819); type: functional
[11] = molecular target: cAMP-dependent protein kinase catalytic subunit alpha (Homo sapiens, UniProt P17612); type: functional
[12] = molecular target: Cell division cycle 7-related protein kinase (Homo sapiens, UniProt O00311); type: functional;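 note: value obtained from a kinome-wide kinase panel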
[13] = molecular target: Glycogen synthase kinase-3 beta (Homo sapiens, UniProt P49841); type: functional;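 note: value comes from a broad kinome profiling panel, with GSK3B as the panel member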
[14] = molecular target: Homeodomain-interacting protein kinase 2 (Homo sapiens, UniProt Q9H2X6); type: functional;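 note: measured within a kinome-wide kinase profiling panel, HIPK2 being one panel member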
[15] = molecular target: Dual specificity protein kinase CLK4 (Homo sapiens, UniProt Q9HAZ1); type: functional
[16] = molecular target: Serine/threonine-protein kinase pim-1 (Homo sapiens, UniProt P11309); type: functional
[17] = molecular target: Tyrosine-protein kinase Fyn (Homo sapiens, UniProt P06241); type: functional
[18] = molecular target: Tyrosine-protein kinase Lck (Homo sapiens, UniProt P06239); type: functional;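 note: lck was assayed as one member of a kinase panel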
[19] = molecular target: Tyrosine-protein kinase Blk (Homo sapiens, UniProt P51451); type: functional;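 note: obtained as one member of a kinome-wide kinase assay panel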
[20] = molecular target: Vascular endothelial growth factor receptor 2 (Homo sapiens, UniProt P35968); type: functional
[21] = molecular target: Macrophage colony-stimulating factor 1 receptor (Homo sapiens, UniProt P07333); type: functional;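 note: value comes from the Navigating the Kinome screening panel, CSF1R member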
[22] = molecular target: Proto-oncogene tyrosine-protein kinase Src (Homo sapiens, UniProt P12931); type: functional;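 note: SRC entry within a kinome-wide kinase profiling panel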
[23] = molecular target: Vascular endothelial growth factor receptor 1 (Homo sapiens, UniProt P17948); type: functional;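 note: measured within a kinome-wide profiling panel, FLT1 as the panel member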
[24] = molecular target: Vascular endothelial growth factor receptor 3 (Homo sapiens, UniProt P35916); type: functional;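 note: value from a kinome-wide profiling panel, with FLT4 as the panel member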
[25] = molecular target: High affinity nerve growth factor receptor (Homo sapiens, UniProt P04629); type: functional;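 note: NTRK1 tested as one member of a kinome-wide profiling panel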
[26] = molecular target: Tyrosine-protein kinase Lyn (Homo sapiens, UniProt P07948); type: functional;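 note: lyn as one member of a kinase panel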
[27] = molecular target: Mast/stem cell growth factor receptor Kit (Homo sapiens, UniProt P10721); type: functional;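 note: KIT entry within a kinase panel assay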
[28] = molecular target: T4, Receptor-type tyrosine-protein kinase FLT3 (Homo sapiens, UniProt P36888); type: functional;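 note: FLT3 was tested as one member of a kinome-wide kinase panel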
T4 sequence (P36888 whole entry): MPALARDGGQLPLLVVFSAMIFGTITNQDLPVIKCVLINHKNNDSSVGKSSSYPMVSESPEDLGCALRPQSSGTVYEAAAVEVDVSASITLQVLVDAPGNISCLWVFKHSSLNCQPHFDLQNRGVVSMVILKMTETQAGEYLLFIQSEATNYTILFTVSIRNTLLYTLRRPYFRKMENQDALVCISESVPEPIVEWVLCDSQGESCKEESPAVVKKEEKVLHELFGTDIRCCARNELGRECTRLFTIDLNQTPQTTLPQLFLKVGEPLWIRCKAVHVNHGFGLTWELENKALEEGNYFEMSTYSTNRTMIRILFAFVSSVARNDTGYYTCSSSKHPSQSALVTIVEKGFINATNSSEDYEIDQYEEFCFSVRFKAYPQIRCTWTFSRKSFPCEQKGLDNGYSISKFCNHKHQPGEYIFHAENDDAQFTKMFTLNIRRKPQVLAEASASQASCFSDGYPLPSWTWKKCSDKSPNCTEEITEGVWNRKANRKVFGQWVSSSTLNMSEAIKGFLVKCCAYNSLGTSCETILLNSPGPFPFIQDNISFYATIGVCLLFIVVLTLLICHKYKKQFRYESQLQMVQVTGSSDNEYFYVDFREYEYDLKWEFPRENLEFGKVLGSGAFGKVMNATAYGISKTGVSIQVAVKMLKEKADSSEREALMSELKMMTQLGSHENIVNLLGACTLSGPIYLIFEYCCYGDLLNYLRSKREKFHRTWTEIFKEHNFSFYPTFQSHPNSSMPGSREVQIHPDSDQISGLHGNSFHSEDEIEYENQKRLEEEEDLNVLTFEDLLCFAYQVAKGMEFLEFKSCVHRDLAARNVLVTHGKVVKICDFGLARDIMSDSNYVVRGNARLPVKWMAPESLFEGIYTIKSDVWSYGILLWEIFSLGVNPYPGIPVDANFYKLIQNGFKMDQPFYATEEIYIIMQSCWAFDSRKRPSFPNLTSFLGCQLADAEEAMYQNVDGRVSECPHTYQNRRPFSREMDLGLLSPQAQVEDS

[29] = molecular target: Tyrosine-protein kinase ABL1 (Homo sapiens, UniProt P00519); type: functional
[30] = molecular target: T5, ATP-dependent translocase ABCB1 (Homo sapiens, UniProt P08183); assay: ABCB1 efflux inhibitor potency, dose response, Jurkat-DNR cells, JC-1, flow cytometry, set 2 (AID 504569); type: functional; details: read-out: EC50_MICROM_;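 note: potency of pump inhibitors that raise cellular JC-1 green fluorescence up to the nicardipine level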
[31] = molecular target: T5, ATP-dependent translocase ABCB1; assay: ABCG2 efflux pump inhibitor potency, dose response, Ig-MXP3 cells, JC-1, flow cytometry, set 2 (AID 504566); type: functional; details: read-out: EC50_MICROM_;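 note: flow cytometry median green fluorescence of retained JC-1 dye; potency of efflux pump inhibition measured as rising substrate retention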
[32] = molecular target: Aryl hydrocarbon receptor (Homo sapiens, UniProt P35869); details: Potency;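 note: confirmatory quantitative high-throughput screen measuring activation of the AhR signaling pathway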
[33] = molecular target: Mitochondrial peptide methionine sulfoxide reductase (Bos taurus, UniProt P54149); type: functional;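 note: absorbance read-out, biochemical high-throughput dose-response screen for MsrA inhibitors, confirmatory; recombinant bovine MsrA coupled to E. coli TrxB with NADPH and selenocystamine; potency is for inhibitors of MsrA activity on DMSO substrate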

T2 sequence (Q9HC16 whole entry): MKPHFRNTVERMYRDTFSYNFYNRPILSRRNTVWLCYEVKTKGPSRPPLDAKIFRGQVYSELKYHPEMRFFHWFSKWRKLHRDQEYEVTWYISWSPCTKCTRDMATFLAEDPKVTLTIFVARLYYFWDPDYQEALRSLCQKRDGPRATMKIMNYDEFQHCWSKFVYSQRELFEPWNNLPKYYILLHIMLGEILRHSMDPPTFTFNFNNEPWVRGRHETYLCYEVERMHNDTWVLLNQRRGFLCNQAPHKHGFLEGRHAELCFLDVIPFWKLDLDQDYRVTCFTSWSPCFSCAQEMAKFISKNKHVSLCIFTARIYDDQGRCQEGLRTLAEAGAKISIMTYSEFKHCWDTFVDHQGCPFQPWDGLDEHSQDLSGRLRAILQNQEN
T1 sequence (P31941 whole entry): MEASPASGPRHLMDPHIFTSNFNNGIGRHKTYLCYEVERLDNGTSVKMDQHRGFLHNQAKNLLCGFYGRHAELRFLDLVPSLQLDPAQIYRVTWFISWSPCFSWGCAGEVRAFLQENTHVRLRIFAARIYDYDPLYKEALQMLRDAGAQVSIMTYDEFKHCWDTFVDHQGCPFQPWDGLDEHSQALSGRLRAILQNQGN
Vascular endothelial growth factor receptor 3, sequence (P35916 whole entry): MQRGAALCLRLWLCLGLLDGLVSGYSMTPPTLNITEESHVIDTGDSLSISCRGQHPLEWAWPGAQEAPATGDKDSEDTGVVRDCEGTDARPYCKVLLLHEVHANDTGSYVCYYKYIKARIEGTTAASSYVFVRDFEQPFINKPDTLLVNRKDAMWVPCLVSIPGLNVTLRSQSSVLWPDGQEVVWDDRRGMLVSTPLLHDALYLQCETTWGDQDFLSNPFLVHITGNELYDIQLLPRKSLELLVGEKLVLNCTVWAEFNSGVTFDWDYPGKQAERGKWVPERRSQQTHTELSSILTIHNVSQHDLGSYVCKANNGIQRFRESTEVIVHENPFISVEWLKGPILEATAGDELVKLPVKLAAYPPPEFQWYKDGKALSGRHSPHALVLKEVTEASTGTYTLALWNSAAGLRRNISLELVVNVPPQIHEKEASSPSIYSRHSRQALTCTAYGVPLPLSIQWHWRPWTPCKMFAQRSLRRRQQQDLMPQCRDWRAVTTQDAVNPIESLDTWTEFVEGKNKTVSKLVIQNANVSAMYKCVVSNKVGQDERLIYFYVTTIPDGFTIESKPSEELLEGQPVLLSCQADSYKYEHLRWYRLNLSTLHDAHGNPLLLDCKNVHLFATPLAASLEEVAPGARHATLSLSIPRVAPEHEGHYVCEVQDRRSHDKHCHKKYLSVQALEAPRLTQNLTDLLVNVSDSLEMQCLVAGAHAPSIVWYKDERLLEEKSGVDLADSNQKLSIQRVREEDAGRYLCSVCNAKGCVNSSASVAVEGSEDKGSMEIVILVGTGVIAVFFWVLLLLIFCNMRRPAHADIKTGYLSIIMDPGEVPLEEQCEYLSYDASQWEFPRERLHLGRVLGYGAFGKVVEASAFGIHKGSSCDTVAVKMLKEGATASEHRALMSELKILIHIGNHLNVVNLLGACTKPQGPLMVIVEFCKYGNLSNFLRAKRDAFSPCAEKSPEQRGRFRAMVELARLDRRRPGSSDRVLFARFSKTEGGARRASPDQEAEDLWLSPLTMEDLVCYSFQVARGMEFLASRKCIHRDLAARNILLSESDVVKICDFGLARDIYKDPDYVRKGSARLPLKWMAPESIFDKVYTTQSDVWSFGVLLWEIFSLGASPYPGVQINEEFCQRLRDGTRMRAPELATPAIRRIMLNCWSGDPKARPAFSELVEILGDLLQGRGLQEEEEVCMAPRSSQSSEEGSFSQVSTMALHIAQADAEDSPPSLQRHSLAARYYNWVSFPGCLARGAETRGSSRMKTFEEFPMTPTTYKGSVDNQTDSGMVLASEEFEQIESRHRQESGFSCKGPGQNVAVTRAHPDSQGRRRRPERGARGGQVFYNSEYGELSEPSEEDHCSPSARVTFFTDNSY
Macrophage colony-stimulating factor 1 receptor, sequence (P07333 whole entry): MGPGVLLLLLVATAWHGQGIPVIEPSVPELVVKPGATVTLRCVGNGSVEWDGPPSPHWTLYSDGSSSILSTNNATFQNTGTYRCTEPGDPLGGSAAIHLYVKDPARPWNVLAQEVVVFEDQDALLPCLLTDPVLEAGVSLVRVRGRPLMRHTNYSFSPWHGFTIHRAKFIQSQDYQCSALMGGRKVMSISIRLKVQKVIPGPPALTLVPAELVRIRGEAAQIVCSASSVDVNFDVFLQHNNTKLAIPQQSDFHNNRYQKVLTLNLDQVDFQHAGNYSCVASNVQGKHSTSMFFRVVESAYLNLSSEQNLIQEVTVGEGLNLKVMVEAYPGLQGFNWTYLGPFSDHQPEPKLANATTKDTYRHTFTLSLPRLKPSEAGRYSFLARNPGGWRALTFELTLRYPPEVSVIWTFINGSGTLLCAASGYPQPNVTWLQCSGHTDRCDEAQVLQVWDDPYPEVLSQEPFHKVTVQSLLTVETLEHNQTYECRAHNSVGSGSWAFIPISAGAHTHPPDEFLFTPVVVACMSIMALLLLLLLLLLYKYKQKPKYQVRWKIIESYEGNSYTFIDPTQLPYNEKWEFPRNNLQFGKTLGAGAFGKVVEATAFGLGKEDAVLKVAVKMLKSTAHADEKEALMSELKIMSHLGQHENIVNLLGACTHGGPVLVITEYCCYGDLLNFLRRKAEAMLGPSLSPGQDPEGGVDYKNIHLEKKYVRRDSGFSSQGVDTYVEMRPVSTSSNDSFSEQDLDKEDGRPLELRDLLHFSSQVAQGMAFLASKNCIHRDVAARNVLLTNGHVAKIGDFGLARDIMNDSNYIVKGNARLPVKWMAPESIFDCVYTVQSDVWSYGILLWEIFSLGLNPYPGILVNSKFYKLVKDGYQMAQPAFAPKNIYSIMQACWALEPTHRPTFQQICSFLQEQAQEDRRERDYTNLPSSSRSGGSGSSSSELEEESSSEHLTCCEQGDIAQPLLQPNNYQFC
Tyrosine-protein kinase Fyn, sequence (P06241 whole entry): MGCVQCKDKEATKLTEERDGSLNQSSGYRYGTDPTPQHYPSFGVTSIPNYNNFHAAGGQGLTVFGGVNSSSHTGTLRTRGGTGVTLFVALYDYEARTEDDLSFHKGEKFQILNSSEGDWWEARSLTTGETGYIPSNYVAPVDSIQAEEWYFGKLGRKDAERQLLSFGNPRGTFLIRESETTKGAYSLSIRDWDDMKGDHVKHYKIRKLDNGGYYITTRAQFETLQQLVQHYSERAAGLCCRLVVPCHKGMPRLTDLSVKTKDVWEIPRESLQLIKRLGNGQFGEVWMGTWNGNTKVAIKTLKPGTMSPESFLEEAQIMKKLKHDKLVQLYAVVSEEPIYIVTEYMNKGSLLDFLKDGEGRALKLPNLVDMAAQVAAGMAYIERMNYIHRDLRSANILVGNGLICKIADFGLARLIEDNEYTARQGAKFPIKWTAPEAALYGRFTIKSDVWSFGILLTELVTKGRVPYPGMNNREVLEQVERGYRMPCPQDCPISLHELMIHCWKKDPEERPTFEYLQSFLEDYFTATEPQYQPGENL
Homeodomain-interacting protein kinase 2, sequence (Q9H2X6 whole entry): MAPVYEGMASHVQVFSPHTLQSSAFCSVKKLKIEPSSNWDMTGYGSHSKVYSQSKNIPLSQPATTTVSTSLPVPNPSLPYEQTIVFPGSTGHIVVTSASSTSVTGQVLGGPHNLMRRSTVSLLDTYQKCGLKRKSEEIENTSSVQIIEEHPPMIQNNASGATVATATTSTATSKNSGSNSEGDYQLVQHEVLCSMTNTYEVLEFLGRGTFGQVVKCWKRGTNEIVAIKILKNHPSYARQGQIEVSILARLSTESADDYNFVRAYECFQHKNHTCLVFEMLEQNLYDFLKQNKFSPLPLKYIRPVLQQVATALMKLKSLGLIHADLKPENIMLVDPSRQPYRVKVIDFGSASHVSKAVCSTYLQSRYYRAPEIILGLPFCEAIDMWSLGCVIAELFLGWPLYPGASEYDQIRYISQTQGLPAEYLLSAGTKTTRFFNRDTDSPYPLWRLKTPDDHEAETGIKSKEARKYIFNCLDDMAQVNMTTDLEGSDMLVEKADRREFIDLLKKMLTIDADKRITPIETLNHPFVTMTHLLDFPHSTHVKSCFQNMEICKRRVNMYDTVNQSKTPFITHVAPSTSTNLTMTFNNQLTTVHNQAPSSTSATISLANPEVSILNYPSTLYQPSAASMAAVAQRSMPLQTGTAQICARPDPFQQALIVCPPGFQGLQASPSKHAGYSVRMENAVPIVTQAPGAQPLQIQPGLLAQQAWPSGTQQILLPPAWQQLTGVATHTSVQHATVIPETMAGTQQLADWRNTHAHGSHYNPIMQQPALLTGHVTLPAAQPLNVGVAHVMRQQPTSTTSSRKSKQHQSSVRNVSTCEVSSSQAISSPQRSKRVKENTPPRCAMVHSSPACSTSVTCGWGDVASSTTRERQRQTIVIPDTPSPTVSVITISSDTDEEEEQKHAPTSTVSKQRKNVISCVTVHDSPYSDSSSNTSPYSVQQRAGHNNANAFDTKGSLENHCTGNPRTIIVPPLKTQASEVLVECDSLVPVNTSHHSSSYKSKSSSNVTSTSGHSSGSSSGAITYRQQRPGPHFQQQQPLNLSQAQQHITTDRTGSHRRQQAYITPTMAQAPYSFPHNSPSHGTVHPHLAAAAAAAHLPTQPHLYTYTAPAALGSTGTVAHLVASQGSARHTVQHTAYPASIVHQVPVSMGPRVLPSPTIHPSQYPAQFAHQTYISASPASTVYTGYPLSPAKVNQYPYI
Glycogen synthase kinase-3 beta, sequence (P49841 whole entry): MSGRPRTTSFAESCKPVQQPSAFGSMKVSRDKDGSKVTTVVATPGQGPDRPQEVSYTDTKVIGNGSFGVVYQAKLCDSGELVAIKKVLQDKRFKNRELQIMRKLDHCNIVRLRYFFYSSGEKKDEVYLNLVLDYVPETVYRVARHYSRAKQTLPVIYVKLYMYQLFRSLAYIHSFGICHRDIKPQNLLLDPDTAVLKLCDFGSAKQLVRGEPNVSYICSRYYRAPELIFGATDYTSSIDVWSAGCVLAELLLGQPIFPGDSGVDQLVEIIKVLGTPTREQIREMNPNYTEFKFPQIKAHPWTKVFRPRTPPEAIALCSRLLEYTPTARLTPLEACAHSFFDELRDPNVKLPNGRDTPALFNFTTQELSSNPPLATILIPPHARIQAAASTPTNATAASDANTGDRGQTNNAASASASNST

Compound: Cc1ccc[n+](CC(=O)Nc2cc(C(F)(F)F)ccc2N2CCOCC2)c1
IC50 [1]: 26600 nM (inactive)
IC50 [2]: 2880 nM (active)
IC50 [3]: 9170 nM (active)
IC50 [4]: 20300 nM (inactive)
IC50 [5]: 601 nM (active)
IC50 [6]: 7420 nM (active)

Compound: Brc1ccc(-c2nn3c(-c4ccccn4)nnc3s2)o1
AC50 [7]: 104000 nM (active)
IC50 (H9c2): 14800 nM (active)

Compound: N=C(NNS(=O)(=O)c1cc(C(F)(F)F)cc(C(F)(F)F)c1)c1ccccn1
AC50 [8]: 104000 nM (active)

Compound: Cc1c(-c2ccnc3cc(C(=O)O)nn23)cnn1C
IC50 [1]: 88900 nM (inactive)
IC50 [5]: > 99000 nM (inactive)

Compound: CCOC(=O)CC(C)(C)/C(C)=N/Nc1ccc([N+](=O)[O-])cc1[N+](=O)[O-]
IC50 [33]: 155000 nM (inactive)

Continued, values first:

EC50 (Melanocortin receptor 4): > 89200 nM (inactive)
Compound: COc1ccccc1-c1cc(NC=O)c2ncc(-c3cccc(C(F)(F)F)c3)n2c1

Ki [9]: 6310 nM (active)
Ki [10]: 100 nM (active)
Ki [11]: 3980 nM (active)
Ki [12]: 5.01 nM (active)
Ki [13]: 2.51 nM (active)
Ki [14]: 20 nM (active)
Ki [15]: 5.01 nM (active)
Ki [16]: 25.1 nM (active)
Compound: O=C(NCc1ccccc1)c1c[nH]n2c(=O)cc(-c3ccncc3)nc12

Ki [9]: 1260 nM (active)
Ki [10]: 3.98 nM (active)
Ki [11]: 158 nM (active)
Ki [12]: 2.51 nM (active)
Ki [13]: 200 nM (active)
Ki [14]: 79.4 nM (active)
Ki [16]: 1580 nM (active)
Compound: OCCNc1cc(-c2c[nH]c3ncccc23)cc(Cl)n1

Ki [17]: 398 nM (active)
pKi [17]: 6.4
Ki [18]: 100 nM (active)
pKi [18]: 7
Ki [19]: 200 nM (active)
pKi [19]: 6.7
Ki [20]: 3.16 nM (active)
pKi [20]: 8.5
Ki [21]: 2 nM (active)
pKi [21]: 8.7
Ki [22]: 501 nM (active)
Ki [23]: 0.631 nM (active)
pKi [23]: 9.2
Ki [24]: 3.16 nM (active)
pKi [24]: 8.5
Ki [25]: 1260 nM (active)
pKi [25]: 5.9
Ki [26]: 158 nM (active)
pKi [26]: 6.8
Ki [27]: 0.794 nM (active)
pKi [27]: 9.1
Ki [28]: 1 nM (active)
pKi [28]: 9
Ki [29]: 501 nM (active)
pKi [29]: 6.3
Compound: Nc1n[nH]c2cccc(-c3ccc(NC(=O)Nc4cccc(Cl)c4)c(F)c3)c12

EC50 [30]: 1020 nM (active)
EC50 [31]: 770 nM (active)
Compound: COc1ccc(-c2cc3nc(-c4ccccc4)cc(N4CCN(C(=O)c5ccsc5)CC4)n3n2)cc1

AC50 [32]: 50100 nM (inconclusive)
Compound: O=C(O)c1cc2ccccc2cc1O
